Source: ChEMBL document CHEMBL6115010, “Targeting glioma with heteroaromatic alkaloids: A review of potential therapeutics” (Bioorg Med Chem, 2025)
Values after ≈ are worked out from the molar mass of the structure shown. Each block holds one molecule with its values, some of them ahead of it.

Tests used:
SF-295 [1] = test: Cytotoxicity against human SF-295 cells assessed as reduction in cell growth incubated for 96 hrs by MTT assay; assay type: functional, cell-based; settings: SF-295, 96 h
SF-295 [2] = test: Cytotoxicity against human SF-295 cells; assay type: functional, cell-based
[3] = Inhibition of rat C6 cells at 2 micromol/L measured for 24 hrs relative to control; assay type: functional; settings: C6, 24 h, dose 2 µmol/L
[4] = Inhibition of rat C6 cells at 1 micromol/L measured for 24 hrs relative to control; assay type: functional; settings: C6, 24 h, dose 1 µmol/L
U-87 MG [5] = test: Cytotoxicity against human U-87 MG cells assessed as reduction in cell growth incubated for 48 hrs by MTT assay; assay type: functional, cell-based, U-87MG ATCC
T98G [6] = test: Cytotoxicity activity against human T98G cells assessed as reduction in cell growth measured for 48 hrs by MTS reagent based assay; assay type: functional
[7] = Growth inhibition of human U373 MG cells measured after 72 hrs by MTT assay; assay type: functional, U-373MG ATCC
T98G [8] = test: Growth inhibition of human T98G cells measured after 72 hrs by MTT assay; assay type: functional
Hs68 = test: Growth inhibition of human Hs68 cells measured after 72 hrs by MTT assay; assay type: functional
U-87 MG [9] = test: Growth inhibition of human U-87 MG cells measured after 72 hrs by MTT assay; assay type: functional, U-87MG ATCC
U-251 [10] = test: Antiproliferative activity against human U-251MG cells assessed as reduction in cell viability incubated for 72 hrs by SRB assay; assay type: functional, cell-based; settings: U-251, 72 h
[11] = Cytotoxicity against HEK293T cells assessed as reduction in cell viability incubated for 72 hrs by MTS assay; assay type: toxicity, cell-based, HEK-293T; settings: human
CCF-STTG1 = test: Cytotoxicity against human CCF-STTG1 cells assessed as reduction in cell growth incubated for 24 hrs by MTT assay; assay type: functional, cell-based; settings: CCF-STTG1, 24 h
[12] = Cytotoxicity against human SHG-44 cells assessed as reduction in cell growth incubated for 24 hrs by MTT assay; assay type: functional, cell-based; settings: SHG-44, 24 h
[13] = Cytotoxicity against human CHG-5 cells assessed as reduction in cell growth incubated for 24 hrs by MTT assay; assay type: functional, cell-based; settings: CHG-5, 24 h
U-251 [14] = test: Cytotoxicity against human U-251MG cells assessed as reduction in cell growth incubated for 24 hrs by MTT assay; assay type: functional, cell-based; settings: U-251, 24 h
SF-268 = test: Cytotoxicity against human SF-268 cells assessed as reduction in cell viability incubated for 72 hrs by MTT assay; assay type: functional, cell-based; settings: SF-268, 72 h
[15] = Cytotoxicity against human GSC-18 cells assessed as reduction in cell growth incubated for 72 hrs by MTS assay; assay type: functional, cell-based; settings: GSC18, 72 h
[16] = Cytotoxicity against rat ASK cells assessed as reduction in cell growth by SRB assay; assay type: functional; settings: read-out: ED50 (the source's name)
[17] = Cytotoxicity against human GSC-3 cells assessed as reduction in cell growth incubated for 72 hrs by MTS assay; assay type: functional, cell-based; settings: GSC-3, 72 h

Structure (SMILES): O=C1c2ccc(Br)cc2-[n+]2ccc3c([nH]c4ccccc43)c21
IC50 (SF-295 [1]): 5.6 µM | IC50 (SF-295 [2]): 3.9 µM

Structure (SMILES): C[n+]1cc2c3c(ccc2c2ccc4cc5c(cc4c21)OCO5)OCO3
inhibition at 2 µM [3]: 82% | inhibition at 1 µM [4]: 35%

Structure (SMILES): COc1ncc(O)c2c(O)cccc12
IC50 (U-87 MG [5]): 2.14 µM

Structure (SMILES): C=CC(C)(C)n1cc(Cc2cn(C(C)(C)C=C)c3ccccc23)c2ccccc21
IC50 (T98G [6]): 18 µg/mL (≈ 47.1 µM)

GI50 (U-87 MG [9]): 6 µM
Structure (SMILES): CO[C@@H]1C=C[C@]23c4cc5c(cc4[C@@H](O)N(C[C@H]2O)[C@@H]3C1)OCO5
GI50 [7]: 7 µM | GI50 (T98G [8]): 14 µM | GI50 (Hs68): 4 µM

IC50 (U-251 [10]): 36.3 µM
Structure (SMILES): CC1=N[C@H](C(=O)O)CC2c3[nH]ccc3NC12 (some centres undefined)

Structure (SMILES): COc1cc2c(cc1OC)[C@H](Cc1cc(O)c(OC)c(Oc3ccc(C=O)cc3)c1)N(C)CC2
IC50 at 72 h [11]: 20 µg/mL (≈ 43.1 µM)

Structure (SMILES): C=CC(C)(C)[C@@]12C[C@H]3C(=O)N[C@@H](Cc4ccccc4)C(=O)N3[C@@H]1N(C(C)=O)c1ccccc12
IC50 (T98G [6]): 20 µg/mL (≈ 45.1 µM)

Structure (SMILES): COC(=O)N1CCc2cc3c(c4c2[C@@H]1Cc1ccc(OC)c(OC)c1-4)OCO3
IC50 (CCF-STTG1): 9.2 µM | IC50 [12]: 11.3 µM | IC50 [13]: 9.7 µM | IC50 (U-251 [14]): 11.3 µM

Structure (SMILES): CC[C@H](/C=C(C)/C=C/C(=O)c1c(O)c(-c2ccc(O)cc2)c[nH]c1=O)CO
IC50 (SF-268): 31.1 µM

Structure (SMILES): COC(=O)N1CCc2cc(O)c(OC)c3c2[C@@H]1Cc1ccc(OC)c(O)c1-3
IC50 (CCF-STTG1): 10.4 µM | IC50 [12]: 11.9 µM | IC50 [13]: 12.2 µM | IC50 (U-251 [14]): 11.9 µM

Structure (SMILES): COc1cc2c(cc1Oc1c(C=O)ccc(OC)c1OC)cc1c3c(c(OC)c(OC)c(OC)c32)CCN1C
IC50 [15]: 5.37 µg/mL (≈ 10.1 µM) | EC50 [16]: 2.11 µg/mL (≈ 3.95 µM) | IC50 [17]: 4.54 µg/mL (≈ 8.51 µM)

IC50 (U-251 [10]): 26.1 µM
Structure (SMILES): CC1=NC(C(=O)O)Cc2c1[nH]c1cc([C@H](c3c[nH]c4ccccc34)[C@@H](O)CO)[nH]c21 (some centres undefined)

Structure (SMILES): COc1cc2c(cc1Oc1c(C=O)ccc(OC)c1OC)C(=O)c1nccc3c(OC)c(OC)c(OC)c-2c13
IC50 [15]: 2.55 µg/mL (≈ 4.8 µM) | EC50 [16]: 10.2 µg/mL (≈ 19.2 µM) | IC50 [17]: 2.36 µg/mL (≈ 4.44 µM)
